# US20210147932A1, “FLUORESCENT PROBES FOR QUANTIFICATION OF DNA DAMAGE AND REPAIR” (The Board of Trustees of the Leland Stanford Junior …, priority 2019, published 2021)
# How the values were obtained:
# Assay type in all cases: biochemical
# AP-DNA = test: Oxime formation kinetics of probe with AP-DNA; conditions: 5 μM probe; for rate of oxime formation with AP DNA: Oligo 15 20 μM, 37° C.; for reaction rate of oxime formation relative to CCVJ1 (longer linker): 20 μM AP-DNA, 50 mM Tris pH 7.0
# Procedure: FIG. 3 provides representative plots for calculations of k2 for Compound (1) (CCVJ1) under various buffer conditions with oligo 15. Plots were fitted in OriginPro 8.5 according to the equation derived by Larsen et. al.^5 for second-order rate constants of oxime formation. Apparent second-order rate constants were calculated as the average of three replicates.
# FIG. 5A provides fluorescence real-times responses for oxime formation under varied conditions. The Time course of oxime formation between Compound (1) (CCVJ1) (5 μM) and AP-DNA (20 μM) under varied buffer conditions (50 mM) is shown. Ionic strength adjusted to 150 mM with NaCl
# Next the reaction rates with CCVJ1 were evaluated. To measure oxime formation kinetics, 5 μM CCVJ1 was reacted with 20 μM AP DNA, and the resulting fluorescence time course was used to determine second-order rate constants by nonlinear regression analysis. Tris buffer was selected since it is commonly used in glycosylase assays with a salt concentration of 100 mM NaCl.
# In addition to Tris buffer, oxime formation kinetics were also measured for CCVJ1 with AP DNA in a solution of a catalytic amine buffer previously shown to accelerate oxime formation. To this end, it was employed 50 mM N,N-dimethylethylenediamine (DEDA)•HCl buffered to a pH of 7.0 in place of the above Tris buffers. […] Such rapid rates of oxime formation at neutral pH are unprecedented for unactivated aldehydes.
# (§1) In addition to the 5′ and 3′ neighboring bases, studies were done of the effect of the orphaned base Z paired opposite the abasic site on the UBER probe system (FIG. 10, panels C-D). Using the sequence where X=C and Y=G, the identity was varied of the base Z opposite the AP site. […] As a result, the smaller pyrimidine bases yielded a greater fluorescence light up response than the larger purine bases. It was also observed a strong effect by the opposing base on the rate of oxime formation (FIG. 10, panel D). […] This trend is in contrast to the neighboring base effect discussed above in which stronger stacking bases accelerated the rate of oxime formation.
# (§2) General procedure for creating AP site DNA: A deoxyuridine containing oligonucleotide (typically 5-20 μM) was treated with 10 U/mL E. coli UDG (New England Biolabs) for 10 minutes at 37° C. in buffer to create AP site containing DNA (see below for MALDI-TOF confirmation). The hairpin was then reacted with probe from a DMSO stock solution (final DMSO concentration <5%).
# Fluorescence time courses: Unless otherwise stated, fluorescence time courses were collected on a Fluoroskan Ascent Microplate Fluorometer (Thermo Fisher Scientific) with black, non-binding 384 well plates (Greiner) at a reaction volume of 60 μL with 50 mM Tris buffer pH 7 (ionic strength adjusted to 100 mM with NaCl) with a fluorescein filter set (Ex. 485, Em. 538).
# [1] = tested on: DNA AP site (AP site containing DNA, oligo 15); test: Fluorescence response of probe covalently attached to the AP site of a DNA hairpin; conditions: for brightness when bound to the AP site compared to CCVJ1: Oligo 15 DNA
# Procedure: FIG. 2B provides emission spectra of oligonucleotide-probe conjugates compared to the emission spectra of the free probe at 2 μM concentration in 50 mM Tris buffer pH 7.0. Excitation was at 470 nm for Compound (1) (also referred to herein as CCVJ1) and 450 nm for Compounds 8 and 9 (also referred to herein as NP1 and NP2) and Compounds 4 and 6 (also referred to herein as BD1 and BD2).
# To assess the potential fluorescence response of each probe, a 17mer DNA hairpin containing a single AP site was prepared and reacted it with a 10-fold excess of probe overnight. The subsequent DNA-probe conjugates were precipitated to remove excess fluorophore and full DNA labelling was confirmed by MALDI-TOF mass spectrometry (Table 1). The reacted DNAs were re-suspended in buffer to a concentration of 2 μM and the emission spectra compared with the spectra of the free probes in solution. […] In addition to its large fluorescence response, CCVJ1 is accessed readily through a facile 4-step synthesis and has good spectral overlap with fluorescein. This makes the probe accessible to a wide range of researchers and well suited to the majority of fluorescence-based instruments.
# as §1, §2
# Procedure for assessing fluorescence response of probes: To assess the fluorescence response of the probes, 25 μM AP site containing DNA (oligo 15) was prepared in a 20 μL solution and allowed to react with 500 μM of each probe overnight. The DNA was then precipitated by the addition of 80 μL 0.33 M sodium acetate and 300 μL ethanol and centrifuged at 21,100 g for 1 hr at 4° C. The resulting DNA pellet was washed twice with 70% EtOH and re-suspended in buffer to a concentration of 2 μM. A portion of the DNA pellet was used for MALDI-TOF analysis. The emission spectra of the probe-oligonucleotide conjugate was measured and compared against a 2 μM solution of the free probe
# AP site-containing DNA = test: Competition for oxime formation between CCVJ1 and AP site-containing DNA; conditions: up to 500 μM linker, CCVJ1 5 μM, AP DNA 20 μM
# Procedure: FIG. 6 provides effect of adding exemplary linker NH2CH2CH2ONH2 to the reaction of Compound (1) (CCVJ1) (5 μM) with AP site containing DNA (20 μM) in buffer.
# FIG. 9 provides interaction between Compound (1) (CCVJ1) and DNA. […] (Ex. 485, Em. 538).
# FIG. 14 provides effect of competing aldehydes/ketones on maximum fluorescence signal.
# Additional experiments were performed to study the origins of this unusually rapid reaction. […] To test the effect that proximity between the alkoxyamine and planar portion of the probe had on oxime kinetics in our probes, probes were synthesized having variable-length linkers (CCVJ2 and CCVJ3) from aldehyde reactive linkers L2 and L3 respectively (FIG. 2A). […] To test the importance of a double-stranded DNA structure to the rate and fluorescence response, an AP-containing single-stranded DNA oligonucleotide was reacted with CCVJ1. At pH 7, CCVJ1 reacted with a second-order rate constant of 33 M^−1s^−1 with the single-stranded substrate, roughly 5-fold slower than a double-stranded hairpin with identical sequence context (FIG. 8).
# To further explore the hypothesis that the oxime rate acceleration in these AP-site DNAs was related to base stacking interactions, the fluorescence was measured of CCVJ1 in the presence and absence of a non-lesion containing DNA hairpin.
# Since the probe design involves conformational restriction to induce a light-up signal, it was hypothesized that off-target oxime formation with small molecules might induce a relatively small signal relative to DNA, thus providing a measure of selectivity in signaling. […] Another potential aspect is that ketones or aldehydes in the environment might compete with the DNA AP site to react with the aminooxy group, thereby consuming the free probe and reducing the maximum signal. Initial testing of the reactivity of CCVJ1 with AP site-containing DNA in the presence of increasing amounts of competing 2-deoxyribose, the closest small-molecule analogue to the DNA AP site. […] This was repeated this experiment with pyruvic acid, a highly reactive ketone and a common cellular metabolite.
# OGG1 = biological target: T1, OGG1 (Homo sapiens, UniProt O15527); test: OGG1 activity in MCF7 lysates with CCVJ1; conditions: MCF7 lysate 0.2 mg/mL, 4 h incubation, 25 μM CCVJ1
# T1 construct: host or cells: MCF-7 whole cell lysate
# Procedure: FIG. 20 provides fluorescence measurement of MCF7 cell lysates (0.2 mg/mL) with 25 μM Compound (1) (CCVJ1) following a 4-hour incubation with 5 μM of an OGG1 hairpin substrate. The inhibitor SU0268 was used to abrogate OGG1 activity. Error bars represent standard deviation of three replicates.
# Encouraged by the results, whether the UBER probe could detect endogenous glycosylase activity was tested from a more challenging target such as OGG1. It is well established that the turnover number of UNG is quite high (˜1-10 s^−1)^5 while the turnover number for many other glycosylases is quite low (0.001-0.1 s^−1). Additionally, most glycosylases, including OGG1, have very low basal expression levels in healthy cells. Given these facts, previous attempts to detect OGG1 activity in lysates have relied on a multistep signal amplification process or extended reaction times (24-48 hrs) to yield signal. […] In this case, the majority of the background signal observed was attributed to intercalation of probe into unreacted hairpin as well as genomic DNA.
# (§3) Cell Lysate Experiments: HeLa or MCF-7 whole cell lysates (Santa Cruz Biotech) were used without further preparation. […] Fluorescence intensity was monitored over the course of 4 hours at 37° C.
# UNG [2] = biological target: T2, UNG (Homo sapiens, UniProt P13051); test: UNG activity in HeLa cell lysate with CCVJ1; set-up: profile endogenous glycosylase activity in cell lysates; host or cells: HeLa whole cell lysate; conditions: 1 U/mL UGI, 0.2 mg/mL HeLa lysate, 5 μM hairpin, 25 μM CCVJ1
# Procedure: FIG. 19, panels A-B illustrates applications of an exemplary probe for measuring multiple repair activities in cell lysates. […] The inhibitor UGI was used at a concentration of 1 U/mL to completely abolish UNG activity. […] Activity was quantified by measuring initial rate velocity using 25 μM CCVJ1 with lysate (0.2 mg/mL) and 5 μM of UNG hairpin substrate.
# It was first tested whether the UBER probe's ability to report on UNG activity in whole cell lysates using the previously described UNG hairpin substrate (FIG. 19, panel A). […] To confirm that the fluorescence response originated from endogenous UNG activity and not off-target binding with proteins or spontaneous depurination, lysate was treated with CCVJ1 and a control hairpin in which the lesion had been replaced by an undamaged T:A base pair. Importantly, the control hairpin yielded no fluorescence response indicating a low degree of false positive signal. […] CCVJ1 appears to represent the first fluorogenic probe to measure real-time UNG activity in cell lysates.
# as §3
# UNG [3] = biological target: T2, UNG; test: UGI IC50 measurement in UBER probe coupled assay; set-up: purchased OriGene; conditions: UNG 5 nM, UGI 0.3 to 30 nM, initial rates after 25 minute delay, triplicate
# Procedure: FIG. 15, panels A-G provides quantitative coupled assays using Compound (1) (CCJV1). Shown are data from reaction of lesion containing substrates with UNG and SMUG1 (5 nM) (panel A), MPG (100 nM) (panel B), NTH1 (500 nM) (panel C), OGG1 (100 nM) in real-time (panel D) with lesion containing DNA (2 μM) and CCVJ1 (20 μM) (panels A, B and D) or lesion containing DNA (60 μM) and CCVJ1 (20 μM) […]. […] Delay time tss of 25 minutes indicated with dotted line.
# Based on the results of our neighboring base effect study, several glycosylase oligonucleotide substrates were purchased or prepared in which the identity of the base lesion X was varied to correspond to the known activities of different target glycosylases (FIG. 15, panel E). For these studies human enzymes SMUG1/UNG, OGG1, MPG and NTH1, were chosen which represent a diverse array of human glycosylases. […] Assays were carried out in a 60 μL volume in a 384 well format on a microplate reader using a fluorescein filter set. For each enzyme, it was possible to observe a robust fluorescence signal (FIG. 15, panels A-D).
# To test the utility of the probe coupled assay for characterizing inhibitors, it was measured the IC50 value of the UNG inhibitor UGI (FIG. 15, panels F-G). […] In all cases, the z-factor of the assay was calculated to be >0.95, well above the threshold necessary for high throughput screening. […]
# T2 sequence (P13051 whole entry): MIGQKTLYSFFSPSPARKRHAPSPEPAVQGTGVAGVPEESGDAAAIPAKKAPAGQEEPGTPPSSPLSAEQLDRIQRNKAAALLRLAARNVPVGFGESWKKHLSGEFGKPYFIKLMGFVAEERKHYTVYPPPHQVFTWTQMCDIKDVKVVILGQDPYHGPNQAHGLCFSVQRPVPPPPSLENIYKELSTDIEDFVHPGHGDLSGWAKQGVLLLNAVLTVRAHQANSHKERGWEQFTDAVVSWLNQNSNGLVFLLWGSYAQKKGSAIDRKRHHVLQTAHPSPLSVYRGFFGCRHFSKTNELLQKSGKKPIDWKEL
# T1 sequence (O15527 whole entry): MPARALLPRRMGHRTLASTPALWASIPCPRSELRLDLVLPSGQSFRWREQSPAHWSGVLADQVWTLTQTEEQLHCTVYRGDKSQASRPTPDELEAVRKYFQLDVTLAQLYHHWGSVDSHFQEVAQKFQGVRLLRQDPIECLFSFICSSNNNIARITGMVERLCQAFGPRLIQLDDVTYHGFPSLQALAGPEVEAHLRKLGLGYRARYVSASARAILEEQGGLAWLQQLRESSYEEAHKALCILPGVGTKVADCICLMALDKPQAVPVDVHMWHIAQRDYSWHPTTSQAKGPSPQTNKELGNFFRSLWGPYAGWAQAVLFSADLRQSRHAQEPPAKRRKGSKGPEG
molecule,measurement,setting,value
CN(CCON)c1ccc2c3c(cccc13)C(=O)N(CCC(=O)O)C2=O [NP1],rate of oxime formation with AP DNA,AP-DNA,accelerated rates of oxime formation
same,fluorescence response with AP DNA,[1],substantial fluorescence responses
N#C/C(=C\c1cc2c3c(c1)CCCN3CCC2)C(=O)NCCOCCON [CCVJ2],reaction rate of oxime formation relative to CCVJ1 (longer linker),AP-DNA,slowed the reaction rate considerably
same,brightness when bound to the AP site compared to CCVJ1,[1],diminished compared to that of CCVJ1
N#C/C(=C\c1cc2c3c(c1)CCCN3CCC2)C(=O)NCCOCCOCCON [CCVJ3],reaction rate of oxime formation relative to CCVJ1 (longer linker),AP-DNA,slowed the reaction rate considerably
same,brightness when bound to the AP site compared to CCVJ1,[1],diminished compared to that of CCVJ1
"NCCON [Compound L1, NH2CH2CH2ONH2]",effect as competing alpha nucleophile on reaction of CCVJ1 with AP DNA,AP site-containing DNA,no effect
same,effect as competing alpha nucleophile on reaction of CCVJ1 with AP DNA,AP site-containing DNA; listed as NH2CH2CH2ONH2,does not significantly compete with CCVJ1 for oxime formation
CN(C)c1ccc(S(=O)(=O)N(C)CCON)c2nonc12 [BD1],rate of oxime formation with AP DNA,AP-DNA,accelerated rates of oxime formation
same,fluorescence response with AP DNA,[1],substantial fluorescence responses
NC(=O)c1cccc(-c2ccc(S(=O)(=O)Nc3ccc4c(c3)N(C(=O)C3CC3)CCC4)cc2)c1 [SU0268],effect of inhibitor on OGG1 repair activity in lysate,OGG1,completely abolished OGG1 repair activity
CN(CCON)c1ccc(S(=O)(=O)N(C)C)c2nonc12 [BD2],rate of oxime formation with AP DNA,AP-DNA,accelerated rates of oxime formation
same,fluorescence response with AP DNA,[1],substantial fluorescence responses
"UGI: the UNG inhibitor UGI; tight 1:1 binding stoichiometry; protein inhibitor (protein, UniProt P14739 1-84, looked up) Uracil-DNA glycosylase …: MTNLSDIIEKETGKQLVIQESILMLPEEVEEVIGNKPESDILVHTAYDESTDENVMLLTSDAPEYKPWALVIQDSNGENKIKML",effect of inhibitor on fluorescence response (UNG activity) in lysate,UNG [2],completely ablated the fluorescence response
same,IC50,UNG [3],7.53 ± 0.44 nM
